The record followed here is patent publication EP0482657A2, “Cephem compounds, their production and use” (Takeda Chemical Industries, Ltd., priority 1990, dated 1992).

In one test the test system is Escherichia coli O-111. Description: Therapeutic effects against intraperitoneal infections in mice (oral administration). Format: in vivo. As to conditions: O111, po, 120 h; Slc:ICR mice infected intraperitoneally with Escherichia coli O-111; once orally immediately after infection; survival over five days; Reed and Münch; in terms of potency of the said cephem carboxylic acid. The procedure: (§1) Infections in Mice. Test animals: Slc : ICR, 4-week old male mice (body weight 20 to 22 g) were employed. Induction of experimental infections (infected mice):
(§2) Staphylococcus aureus 308A-1 or Escherichia coli 0-111 was cultured in Brain Heart Infusion broth (manufactured by Difco Co.) at 37°C for 20 hours. Each of the organisms was suspended in a 8% mucin solution (manufactured by Difco in) at a concentration of 2 x 10⁸ Colony Forming Units (hereinafter abbreviated as "CFU")/ml and 2 x 10⁵ CFU/ml, respectively, and 0.5 ml of each suspension was administered intraperitoneally. Administration of Test compounds: 25 mg of each test compound was dissolved in 0.5 ml of DMSO, and each solution was diluted in distilled water to prepare two fold dilutions of each compound in the range of 2.5 mg/ml - 0.156 mg/ml in the case of infection with Staphylococcus aureus and in the range of 0.156 mg/ml - 0.01 mg/ml in the case of infection with Escherichia coli. A volume of 0.2 ml of each dilution was once administered orally using a tube into the stomach of five mice each in each group immediately after the infection. […] The ED₅₀ value of each compound was that in terms of the potency of the said cephem carboxylic acid.

Test [1] deals with Staphylococcus aureus 308A-1. Described as above. As to conditions: 308A1, po, 120 h; Slc:ICR mice infected intraperitoneally with Staphylococcus aureus 308A-1; once orally immediately after infection; survival over five days; Reed and Münch; in terms of potency of the said cephem carboxylic acid. Format: in vivo. On the procedure:
as §1, §2

Broadly, the ED50 is the dose at which the effect has come halfway, by size or by number of responders. As for `Cc1nnc(SCC2=C(C(=O)OC(C)OC(=O)OC3CCCC3)N3C(=O)[C@@H](NC(=O)/C(=N\O)c4csc(N)n4)[C@H]3SC2)s1` (stereo partly drawn) [Ex.3, 1-(Cyclopentyloxycarbonyloxy)ethyl 7β-[2-(2-aminothiazol-4-yl)-(Z)-2-hydroxyiminoacetamido]-3-[(2-methyl-1,3,4-thiadiazol-5-yl)thiomethyl]-3-cephem-4-carboxylate], the ED50 worked out at 0.13 mg/kg with Escherichia coli O-111 and 8.84 mg/kg in test [1]. The like results for `Cc1nnc(SCC2=C(C(=O)OCOC(=O)C(C)(C)C)N3C(=O)[C@@H](NC(=O)/C(=N\O)c4csc(N)n4)[C@H]3SC2)s1` [JP-A-9698/1985 PR Ex.3, pivaloyloxymethyl ester of the said cephem carboxylic acid, reference compound] were, in that order, 0.279 mg/kg and 22.3 mg/kg. Regarding `Cc1nnc(SCC2=C(C(=O)OC(C)OC(=O)OC(C)C)N3C(=O)[C@@H](NC(=O)/C(=N\O)c4csc(N)n4)[C@H]3SC2)s1` (single isomer, unassigned) [Ex.1, 1-(Isopropoxycarbonyloxy)ethyl 7β-[2-(2-aminothiazol-4-yl)-(Z)-2-hydroxyiminoacetamido]-3-[(2-methyl-1,3,4-thiazol-5-yl)thiomethyl]-3-cephem-4-carboxylate], the values for the ED50 (in the test with Escherichia coli O-111; in test [1]) were 0.141 mg/kg and 7.02 mg/kg, respectively.

On to `CCOC(=O)OC(C)OC(=O)C1=C(CSc2nnc(C)s2)CS[C@@H]2[C@H](NC(=O)/C(=N\O)c3csc(N)n3)C(=O)N12` (some centres unmarked) [JP-A-9698/1985 PR Ex.4, 1-(ethoxycarbonyloxy)ethyl ester of the said cephem carboxylic acid, reference compound], for which the ED50 in the test with Escherichia coli O-111 is 0.349 mg/kg; in test [1] it was greater than 25 mg/kg.

Take `CCC(CC)OC(=O)OC(C)OC(=O)C1=C(CSc2nnc(C)s2)CS[C@@H]2[C@H](NC(=O)/C(=N\O)c3csc(N)n3)C(=O)N12.Cl` (stereo partly drawn) [Ex.6, 1-(1-Ethylpropoxycarbonyloxy)ethyl 7β-[2-(2-aminothiazol-4-yl)-(Z)-2-hydroxyiminoacetamido]-3-[(2-methyl-1,3,4-thiadiazol-5-yl)thiomethyl]-3-cephem-4-carboxylate hydrochloride]: the ED50 in test [1] was found to be 12.5 mg/kg. In the case of `Cc1nnc(SCC2=C(C(=O)O)N3C(=O)[C@@H](NC(=O)/C(=N\O)c4csc(N)n4)[C@H]3SC2)s1` [GB-A-1587941 Ex.16, 7β-[2-(2-aminothiazol-4-yl)-(Z)-2-hydroxyiminoacetamido]-3-[(2-methyl-1,3,4-thiadiazol-5-yl)thiomethyl]-3-cephem-4-carboxylic acid, reference compound], the figures for the ED50 (with Escherichia coli O-111; in test [1]) were 1.25 mg/kg and greater than 25 mg/kg, respectively.

As for `Cc1nnc(SCC2=C(C(=O)OC(C)OC(=O)OC(C)C)N3C(=O)[C@@H](NC(=O)/C(=N\O)c4csc(N)n4)[C@H]3SC2)s1.Cl` (stereo partly drawn) [Ex.2, 1-(Isopropoxycarbonyloxy)ethyl 7β-[2-(2-aminothiazol-4-yl)-(Z)-2-hydroxyiminoacetamido]-3-[(2-methyl-1,3,4-thiadiazol-5-yl)thiomethyl]-3-cephem-4-carboxylate hydrochloride], the values for the ED50 (in the test with Escherichia coli O-111; in test [1]) were 0.13 mg/kg and 5.57 mg/kg, respectively. With `Cc1nnc(SCC2=C(C(=O)OC(C)OC(=O)OC3CCC3)N3C(=O)[C@@H](NC(=O)/C(=N\O)c4csc(N)n4)[C@H]3SC2)s1.Cl` (stereo partly drawn) [Ex.5, 1-(Cyclobutyloxycarbonyloxy)ethyl 7β-[2-(2-aminothiazol-4-yl)-(Z)-2-hydroxyiminoacetamido]-3-[(2-methyl-1,3,4-thiadiazol-5-yl)thiomethyl]-3-cephem-4-carboxylate hydrochloride], in test [1], the 50% effect level (ED50) was put at a dose of 14 mg/kg.
